ChEMBL document CHEMBL4417625, “Therapeutic compounds and methods” (2016)
Activity calls are given as the source filed them. No cut-off for these calls is given here.

Key:
[1] = target: T1, Regulator of G-protein signaling 17 (Homo sapiens) (UniProt Q9UGC6); assay: Inhibition of RGS17 (unknown origin) assessed as reduction in RGS17 interaction with 6x-his-tagged biotinylated Galpha-o interaction by Alpha-screen assay
T1 sequence (whole entry): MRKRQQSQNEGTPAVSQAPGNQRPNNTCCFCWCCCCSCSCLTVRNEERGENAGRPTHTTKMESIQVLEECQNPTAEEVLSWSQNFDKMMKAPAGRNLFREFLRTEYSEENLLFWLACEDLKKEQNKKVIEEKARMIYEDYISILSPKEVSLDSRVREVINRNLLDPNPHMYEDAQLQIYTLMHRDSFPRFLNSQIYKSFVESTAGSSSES

[2] = target: T1, Regulator of G-protein signaling 17 (Homo sapiens); assay: Binding affinity to RGS17 (unknown origin) assessed as shifting of protein melting temperature by Sypro-orange dye based differential scanning fluorimetry
[3] = target: Guanine nucleotide-binding protein G(o) subunit alpha (Homo sapiens) (UniProt P09471); assay: Binding affinity to Galpha-o (unknown origin) assessed as shifting of protein melting temperature by Sypro-orange dye based differential scanning fluorimetry
[4] = target: T1, Regulator of G-protein signaling 17 (Homo sapiens); assay: Inhibition of RGS17 (unknown origin) assessed as reduction in RGS17 interaction with 6x-his-tagged biotinylated Galpha-o interaction at 100 uM followed by 3 times drug wash out with ASB buffer by Alpha-screen assay
[5] = target: T1, Regulator of G-protein signaling 17 (Homo sapiens); assay: Inhibition of RGS17 (unknown origin) assessed as reduction in RGS17 interaction with 6x-his-tagged biotinylated Galpha-o interaction at 100 uM by Alpha-screen assay
[6] = target: T1, Regulator of G-protein signaling 17 (Homo sapiens); assay: Covalent binding affinity to N-terminal deficient RGS17 (unknown origin) assessed as covalent protein-compound adduct formation at 50 uM incubated for 1 hr by MALDI-TOF mass spectrometry
[7] = target: T1, Regulator of G-protein signaling 17 (Homo sapiens); assay: Inhibition of cell membrane translocation of N-terminal GFP tagged and N-terminal deficient RGS17 (unknown origin) expressed in HEK293T cells co-expressing Galpha-o assessed as induction of delocalization of RGS17deltaN to cytoplasm at 100 uM incubated for 10 mins by confocal microscopy; type: cell-based
[8] = test system: HEK-293T; assay: Cytotoxicity in HEK293T cells co-expressing Galpha-o at 100 uM incubated for 10 mins; type: cell-based; details: human
[9] = target: T1, Regulator of G-protein signaling 17 (Homo sapiens); assay: Inhibition of cell membrane translocation of N-terminal GFP tagged and N-terminal deficient RGS17 (unknown origin) expressed in HEK293T cells co-expressing Galpha-o assessed as induction of delocalization of RGS17deltaN to cytoplasm at 10 uM incubated for 10 mins by confocal microscopy; type: cell-based
[10] = target: T1, Regulator of G-protein signaling 17 (Homo sapiens); assay: Inhibition of cell membrane translocation of N-terminal GFP tagged full length RGS17 (unknown origin) expressed in HEK293T cells co-expressing Galpha-o at 100 uM incubated for 10 mins by confocal microscopy; type: cell-based

Guanine nucleotide-binding protein G(o) subunit alpha (Homo sapiens), sequence (P09471 2-354 limits assumed): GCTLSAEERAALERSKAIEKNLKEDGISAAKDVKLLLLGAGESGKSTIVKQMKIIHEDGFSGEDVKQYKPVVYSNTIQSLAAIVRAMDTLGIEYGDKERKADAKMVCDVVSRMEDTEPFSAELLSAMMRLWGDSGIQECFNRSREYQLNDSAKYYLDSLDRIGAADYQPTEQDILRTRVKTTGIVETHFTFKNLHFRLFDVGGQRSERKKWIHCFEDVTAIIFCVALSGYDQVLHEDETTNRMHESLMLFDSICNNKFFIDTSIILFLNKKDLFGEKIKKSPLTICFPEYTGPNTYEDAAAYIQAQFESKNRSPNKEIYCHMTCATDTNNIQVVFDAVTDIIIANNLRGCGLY

Row | SMILES | inhibition [1] | Activity [2] | Activity [3] | inhibition [4] | inhibition [5] | Activity [6] | inhibition [7] | Activity [8] | ΔTm [2] | inhibition [9] | inhibition [10]
1 | CC(C)=CCC[C@]1(C)C=Cc2c(O)c3c(c(CC=C(C)C)c2O1)O[C@]12C(=C[C@@H]4C[C@H]1C(C)(C)O[C@@]2(C/C=C(/C)C(=O)O)C4=O)C3=O [GAMBOGIC ACID] | Dose-dependent effect | Active | Active | Active | inactive | inactive | inactive | Toxic | – | – | –
2 | CC1=C(O)C(=O)C=C2C1=CC=C1[C@@]2(C)CC[C@@]2(C)[C@@H]3C[C@](C)(C(=O)O)CC[C@]3(C)CC[C@]12C | Dose-dependent effect | – | – | Active | inactive | inactive | Active | – | 1.4 °C | Active | –
3 | Cc1ccc(-n2sc(=O)n(Cc3ccc(F)cc3)c2=O)cc1 | – | – | – | – | – | – | inactive | – | – | – | –
4 | C[n+]1cc2c3c(ccc2c2ccc4cc5c(cc4c21)OCO5)OCO3 | Dose-dependent effect | – | – | Active | inactive | inactive | Active | – | 2.1 °C | Active | inactive
5 | O=c1c(-c2cc(O)c(O)c(O)c2)coc2cc(O)c(O)c(O)c12 | Dose-dependent effect | – | – | Active | inactive | inactive | Active | – | 1 °C | Active | –
